“Also recorded” adds a separate entry of the source.
Assays:
human NSCLC xenograph = conditions: in vivo; cited from earlier work
NSCLC cells = conditions: cited from earlier work
A549 lung tumor cells = assay: A549 non-small cell lung tumor xenografts in ovariectomized female athymic mice; assay type: in vivo; conditions: daily subcutaneous treatment, 5 animals per group, P<0.001
Text: FIG. 1. Growth-promoting effects of estrogen and aromatase substrate on non-small cell lung tumor xenografts in vivo. A549 lung tumor cells which express endogenous aromatase were implanted as subcutaneous xenografts in ovariectomized female athymic mice. Mice were then divided into 3 groups (5 animals per group). ▪ Animals were given daily subcutaneous treatments of the aromatase substrate androstenedione as before (see, e.g. Weinberg et al., Cancer Res 2005; 65:11287-91). […] Animals were given daily subcutaneous treatments of estradiol in a biodegradable binder as described (see, e.g. Pietras et al., Oncogene 1995; 10:2435-46). ▴ Control animals were supplemented with subcutaneous injection of vehicle alone.
In this study we examined aromatase, a key enzyme in the estrogen synthesis pathway. We hypothesized that expression of aromatase in lung cancer cells could result in a focal increase in estrogen levels and serve to promote tumor development and/or progression. […] To further assess estrogen signaling in NSCLC in vivo, we implanted A549 lung tumor cells which express endogenous aromatase in ovariectomized female athymic mice.
The protocol used for implantation of human lung tumor xenografts in nude mice was described previously (see, e.g. Weinberg et al., Cancer Res 2005; 65:11287-91; Pietras et al., Oncogene 1995; 10:2435-46). […]

[1] = exemestane cohort compared to women maintained on tamoxifen; cited from earlier work

## C[C@]12CC[C@@H]3c4ccc(O)cc4C[C@@H](CCCCCCCCC[S+]([O-])CCCC(F)(F)C(F)(F)F)[C@H]3[C@@H]1CC[C@@H]2O (stereo partly shown) [Faslodex, fulvestrant]
Human NSCLC xenograph
  Tumor formation in human NSCLC xenograph model: inhibited
NSCLC cells; ER antagonist
  Effect on 17β-estradiol-induced mitogenesis and gene transcription in NSCLC cells: inhibited

## C[C@]12CCC(=O)C=C1CC[C@@H]1[C@@H]2CC[C@]2(C)C(=O)CC[C@@H]12 [androstenedione]
A549 lung tumor cells
  Growth of A549 tumors compared to control animals: significantly increased; also recorded: significantly enhanced tumor growth

## C[C@]12CC[C@@H]3c4ccc(O)cc4CC[C@H]3[C@@H]1CC[C@@H]2O [estradiol, 17β-estradiol]
A549 lung tumor cells
  Growth of A549 tumors compared to control animals: significantly increased
NSCLC cells; in vitro and in vivo models
  Gene transcription in NSCLC cells: stimulates
  Mitogenic effect on NSCLC cells: mitogenic

## C=C1C[C@@H]2[C@H](CC[C@]3(C)C(=O)CC[C@@H]23)[C@@]2(C)C=CC(=O)C=C12 [exemestane]
[1]
  Subsequent development of primary lung cancer: reduction

— patent US20100331203A1, “AROMATASE EXPRESSION PREDICTS SURVIVAL IN WOMEN WITH NON-SMALL CELL LUNG CANCER” (THE REGENTS OF THE UNIVERSITY OF CALIFORNIA, priority 2007, published 2010)
